Results taken from patent publication US20230203041A1, “ANTAGONISTS OF THE ADENOSINE A2A RECEPTOR” (AdoRx Therapeutics Limited, priority 2020, published 2023).

Tests used:
[1] = molecular target: T1, human Adenosine A2b receptor (Homo sapiens, UniProt P29275); experiment: Adenosine receptor TR-FRET binding assay (CA200645 displacement), A2b; settings: 30 nM CA200645, CHO cell membranes, 2 hours at room temperature
T1 construct: expressed in transfected cells; host or cells: CHO cell membranes
T1 sequence (P29275 1-332): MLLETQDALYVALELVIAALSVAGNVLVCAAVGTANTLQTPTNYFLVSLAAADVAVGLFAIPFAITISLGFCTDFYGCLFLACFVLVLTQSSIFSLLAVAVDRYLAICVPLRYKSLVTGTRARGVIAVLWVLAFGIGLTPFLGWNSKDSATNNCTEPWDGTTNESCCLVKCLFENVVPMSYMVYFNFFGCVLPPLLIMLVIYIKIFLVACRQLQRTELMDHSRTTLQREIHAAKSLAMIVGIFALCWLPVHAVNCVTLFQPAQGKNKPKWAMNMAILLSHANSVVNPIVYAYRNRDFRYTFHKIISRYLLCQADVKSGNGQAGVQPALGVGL

human PBMCs = experiment: CD3/CD28 stimulated IL-2 release NECA reversal assay in human PBMCs; type: cell-based; settings: PBMC, CD3/CD28 antibody stimulated, 1 uM NECA, 24 hours, IL-2 in culture supernatant;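 also: dose-response as % inhibition where 100% equals no-NECA control wells with CD3/CD28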
In short: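 PBMCs from citrated donor blood, 50,000 cells/well on plate-bound CD3 antibody (1 ug/ml), with 1 ug/ml CD28 antibody, 1 uM NECA and antagonist at 0.003-10 μM final. After 24 h at 37° C, supernatant IL-2 was measured by MSD immunoassay.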

[2] = system: CD8+ T cells in human whole blood; experiment: Measurement of pCREB in CD8+ T cells in human whole blood; type: cell-based; settings: T-cell, 1 h; heparinised human whole blood, rolipram, 3 μM NECA, 60 min, phospho-CREB in CD8+ T cells by FACS
In short: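 Heparinised human whole blood preincubated 20 min at 37 °C with serially diluted A2a antagonists plus rolipram, then stimulated 60 min with 3 μM NECA (final). After fixation and RBC lysis, permeabilized leukocytes stained for phospho-CREB and CD8; pCREB in CD8+ T cells read by flow cytometry.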

[3] = molecular target: T2, human Adenosine A1 receptor (Homo sapiens, UniProt P30542); experiment: Adenosine receptor TR-FRET binding assay (CA200645 displacement), A1
T2 sequence (P30542 1-326): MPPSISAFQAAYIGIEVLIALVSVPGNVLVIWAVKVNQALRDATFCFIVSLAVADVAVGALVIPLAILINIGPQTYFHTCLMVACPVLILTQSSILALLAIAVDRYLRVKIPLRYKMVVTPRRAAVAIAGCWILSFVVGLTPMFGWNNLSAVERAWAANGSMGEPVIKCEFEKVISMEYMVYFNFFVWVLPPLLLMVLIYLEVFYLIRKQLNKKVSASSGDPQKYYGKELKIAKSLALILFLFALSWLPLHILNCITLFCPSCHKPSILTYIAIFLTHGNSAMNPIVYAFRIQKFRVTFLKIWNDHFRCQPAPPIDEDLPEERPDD

[4] = molecular target: T3, human Adenosine A3 receptor (Homo sapiens, UniProt P0DMS8); experiment: Adenosine receptor TR-FRET binding assay (CA200645 displacement), A3
T3 sequence (P0DMS8 1-318): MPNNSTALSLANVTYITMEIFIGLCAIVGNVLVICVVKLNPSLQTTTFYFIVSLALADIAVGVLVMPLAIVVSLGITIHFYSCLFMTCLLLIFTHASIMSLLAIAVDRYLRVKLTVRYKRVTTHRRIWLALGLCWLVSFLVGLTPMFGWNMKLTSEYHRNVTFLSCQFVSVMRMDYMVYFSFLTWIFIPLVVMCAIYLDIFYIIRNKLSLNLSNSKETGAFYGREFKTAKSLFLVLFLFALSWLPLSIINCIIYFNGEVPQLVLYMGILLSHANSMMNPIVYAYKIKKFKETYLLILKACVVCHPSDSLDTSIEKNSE

[5] = molecular target: T4, human Adenosine A2a receptor (Homo sapiens, UniProt P29274); experiment: Adenosine receptor TR-FRET binding assay (CA200645 displacement), A2a; settings: 100 nM CA200645, CHO cell membranes, 2 hours at room temperature
T4 construct: expressed in transfected cells; host or cells: CHO cell membranes
T4 sequence (P29274 whole entry): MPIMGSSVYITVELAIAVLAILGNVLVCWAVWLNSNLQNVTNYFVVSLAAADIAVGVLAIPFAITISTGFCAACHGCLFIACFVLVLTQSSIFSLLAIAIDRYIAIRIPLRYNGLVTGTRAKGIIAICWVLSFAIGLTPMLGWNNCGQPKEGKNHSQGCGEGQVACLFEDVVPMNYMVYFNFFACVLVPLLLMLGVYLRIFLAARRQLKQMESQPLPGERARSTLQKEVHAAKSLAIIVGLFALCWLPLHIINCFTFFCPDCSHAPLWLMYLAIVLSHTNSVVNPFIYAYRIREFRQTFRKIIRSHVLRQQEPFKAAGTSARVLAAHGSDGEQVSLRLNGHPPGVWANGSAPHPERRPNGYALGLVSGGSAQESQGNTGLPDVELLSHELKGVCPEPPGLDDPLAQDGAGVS

Row | SMILES | Ki [1] [nM] | IC50 (human PBMCs) [nM] | IC50 [2] [nM] | Ki [3] [nM] | Ki [4] [nM] | Ki [5] [nM]
1 | Cc1cc(-c2c(-c3cccc(C#N)c3)nn3ccc(N/C(=N\C#N)NCC(C)(C)O)nc23)cc(Cl)n1 [Example 32.2, 1-[3-(2-Chloro-6-methyl-4-pyridyl)-2-(3-cyanophenyl)pyrazolo[1,5-a]pyrimidin-5-yl]-2-cyano-3-(2-hydroxy-2-methyl-propyl)quanidine] | 5 | 16 | 490 | 29 | > 1000 | 0.8
2 | Cc1cccnc1CNc1ccn2nc(-c3ccco3)c(C#N)c2n1 [Example 37, 2-(2-Furyl)-5-[(3-methyl-2-pyridyl)methylamino]pyrazolo[1,5-a]pyrimidine-3-carbonitrile] | 22 | 13 | 1460 | 5 | 186 | 0.3
3 | Cc1cc(-c2c(-c3cccc(C#N)c3)nn3ccc(C(=O)N[C@@H](C)C(C)(C)O)nc23)cc(C)n1 [Example 92, 2-(3-Cyanophenyl)-3-(2,6-dimethyl-4-pyridyl)-N-[(1S)-2-hydroxy-1,2-dimethyl-propyl]pyrazolo[1,5-a]pyrimidine-5-carboxamide] | 37 | 4 | 20 | 107 | 1470 | 0.4
4 | Cc1cc(-c2c(-c3cccc(C#N)c3)nn3ccc(C(=O)NCC(C)(O)CO)nc23)cc(C)n1 (stereo not drawn) [Example 92.1] | 4 | 14 | 110 | 222 | > 1000 | 0.5
5 | Cc1cc(-c2c(-c3cccc(C#N)c3)nn3ccc(C(=O)NC45CC(O)(C4)C5)nc23)cc(C)n1 [Example 92.2] | 25 | 17 | 350 | 324 | > 1000 | 1.6
6 | Cc1cc(-c2c(-c3cccc(C#N)c3)nn3ccc(C(=O)NCC4(O)COC4)nc23)cc(C)n1 [Example 92.3] | 7 | 11 | 260 | 212 | > 1000 | 2
7 | Cc1cc(-c2c(-c3cccc(C#N)c3)nn3ccc(C(=O)NCC4CCNC(=O)C4)nc23)cc(C)n1 (stereo not drawn) [Example 92.4] | 23 | 33 | 830 | 362 | > 1000 | 4.4
8 | Cc1cc(-c2c(-c3cccc(C#N)c3)nn3ccc(NC(=O)C(C)(C)O)nc23)cc(Cl)n1 [Example 94, N-[3-(2-Chloro-6-methyl-4-pyridyl)-2-(3-cyanophenyl)pyrazolo[1,5-a]pyrimidin-5-yl]-2-hydroxy-2-methyl-propanamide] | 3 | 27 | 1720 | 124 | > 1000 | 1
9 | CC(=O)Nc1ccn2nc(-c3cccc(C#N)c3)c(-c3cc(C)nc(Cl)c3)c2n1 [Example 94.1, N-[3-(2-Chloro-6-methyl-4-pyridyl)-2-(3-cyanophenyl)pyrazolo[1,5-a]pyrimidin-5-yl]acetamide] | 14 | 26 | 750 | 99 | > 1000 | 1.8
10 | Cc1cc(-c2c(-c3cccc(C#N)c3)nn3ccc(NC(=O)CC(C)(C)O)nc23)cc(Cl)n1 [Example 94.2, N-[3-(2-chloro-6-methyl-4-pyridyl)-2-(3-cyanophenyl)pyrazolo[1,5-a]pyrimidin-5-yl]-3-hydroxy-3-methyl-butanamide] | 7 | 20 | 530 | 81 | 2050 | 1.2
11 | Cc1cc(-c2c(-c3cccc(C#N)c3)nn3ccc(NC(=O)CC(C)(C)O)nc23)cc(C)n1 [Example 94.4, N-[2-(3-Cyanophenyl)-3-(2,6-dimethyl-4-pyridyl)pyrazolo[1,5-a]pyrimidin-5-yl]-3-hydroxy-3-methyl-butanamide] | 13 | 14 | 150 | 79 | > 1000 | 1.7
12 | Cc1cc(-c2c(-c3cccc(C#N)c3)nn3ccc(NC(=O)C(C)(C)O)nc23)cc(C)n1 [Example 94.5, N-[2-(3-cyanophenyl)-3-(2,6-dimethyl-4-pyridyl)pyrazolo[1,5-a]pyrimidin-5-yl]-2-hydroxy-2-methyl-propanamide] | 20 | 16 | 590 | 145 | > 1000 | 3.7
13 | Cc1cc(-c2c(-c3cccc(C#N)c3)nn3ccc(C(=O)NCCC(C)(C)N)nc23)cc(C)n1 [Example 96, N-(3-Amino-3-methyl-butyl)-2-(3-cyanophenyl)-3-(2,6-dimethyl-4-pyridyl)pyrazolo[1,5-a]pyrimidine-5-carboxamide] | 7 | 10 | 360 | 143 | > 1000 | 0.5
14 | Cc1cc(-c2c(-c3cccc(C#N)c3)nn3ccc(C(=N)N)nc23)cc(C)n1 [Example 97, 2-(3-Cyanophenyl)-3-(2,6-dimethyl-4-pyridyl)pyrazolo[1,5-a]pyrimidine-5-carboxamidine] | 21 | 38 | 580 | 260 | > 1000 | 1.5
15 | CC(=O)NC(C)(C)CNC(=O)c1ccn2nc(-c3cccc(C#N)c3)c(-c3cc(C)nc(Cl)c3)c2n1 [Example 98, N-(2-Acetamido-2-methyl-propyl)-3-(2-chloro-6-methyl-4-pyridyl)-2-(3-cyanophenyl)pyrazolo[1,5-a]pyrimidine-5-carboxamide] | 9 | 3 | 360 | 87 | 655 | 0.4
16 | Cc1cc(-c2c(-c3cccc(C#N)c3C)nn3ccc(C(=O)NCC(C)(C)O)nc23)cc(Cl)n1 [Example 102, 3-(2-Chloro-6-methyl-4-pyridyl)-2-(3-cyano-2-methyl-phenyl)-N-(2-hydroxy-2-methyl-propyl)pyrazolo[1,5-a]pyrimidine-5-carboxamide] | 32 | 16 | 140 | 233 | > 1000 | 0.5
17 | Cc1cc(-c2c(-c3cccc(C#N)c3C)nn3ccc(C(=O)NCC(C)(C)O)nc23)cc(C)n1 [Example 103, 2-(3-Cyano-2-methyl-phenyl)-3-(2,6-dimethyl-4-pyridyl)-N-(2-hydroxy-2-methyl-propyl)pyrazolo[1,5-a]pyrimidine-5-carboxamide] | 22 | 24 | 30 | 298 | > 1000 | 0.3
18 | Cc1cc(-c2c(-c3cccc(C#N)c3C)nn3ccc(C(=O)N[C@H](C)C(C)(C)O)nc23)cc(C)n1 [Example 104, 2-(3-Cyano-2-methyl-phenyl)-3-(2,6-dimethyl-4-pyridyl)-N-[(1R)-2-hydroxy-1,2-dimethyl-propyl]pyrazolo[1,5-a]pyrimidine-5-carboxamide] | 330 | 10 | 190 | 735 | > 1000 | 0.9
19 | Cc1cc(-c2c(-c3cccc(C#N)c3C)nn3ccc(C(=O)N[C@@H](C)C(C)(C)O)nc23)cc(C)n1 [Example 104.1, 2-(3-Cyano-2-methyl-phenyl)-3-(2,6-dimethyl-4-pyridyl)-N-[(1S)-2-hydroxy-1,2-dimethyl-propyl]pyrazolo[1,5-a]pyrimidine-5-carboxamide] | 111 | 4 | 30 | 398 | > 1000 | 1.2
